# Biological target: T1, RORγ LBD-GST tagged (Homo sapiens, UniProt P51449)
# T1 construct: RORγ LBD-GST tagged (Cat No. RORC-114H, Creative Biomart); purchased Creative Biomart RORC-114H
# T1 sequence (P51449 269-508 limits assumed): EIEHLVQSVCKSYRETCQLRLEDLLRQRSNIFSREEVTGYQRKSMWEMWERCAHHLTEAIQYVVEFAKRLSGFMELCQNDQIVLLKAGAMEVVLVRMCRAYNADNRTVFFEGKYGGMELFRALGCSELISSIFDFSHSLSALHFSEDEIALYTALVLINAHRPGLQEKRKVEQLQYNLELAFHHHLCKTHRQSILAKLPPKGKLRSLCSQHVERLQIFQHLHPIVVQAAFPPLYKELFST
# Assay: LanthaScreen TR-FRET RORγ coactivator assay
# Type: biochemical
# Conditions: Fluorescein-D22 coactivator peptide, 1 hour room temperature
# Excerpt: LanthaScreen TR-FRET Retinoid-Related Orphan Receptor Gamma (RORγ) Coactivator Assay Materials and Reagents • 1. […] Fluorescein-D22 coactivator peptide (Cat No. PV4386, Invitrogen) • 3. LanthaScreen™ Tb anti-GST antibody (Cat No. PV3550, Invitrogen) • 4. TR-FRET coregulatory buffer D (Cat No, PV4420, Invitrogen) • 5. DTT (Cat No. P2325, Fisher) • 6. […] Tecan Infinite M1000 plate reader (Tecan) Experimental Procedure Prepare Complete TR-FRET Coregulator Buffer D by adding 1 M DTT to TR-FRET Coregulator Buffer D to the final concentration of 5 mM DTT. Make compound dilution in Complete TR-FRET Coregulator Buffer D. Highest dose is 3 μM, 7-folder dilution for total 7 doses. Add 10 μL to each well of a 384-well plate. For the negative and positive controls, add 10 μL of Complete TR-FRET Coregulator Buffer D. Prepare RORγ LBD using Complete TR-FRET Coregulator Buffer D. The final concentration of RORγ LBD is 25 ng/reaction. Add 5 μL RORγ LBD to all the wells of the 384-well assay plate except negative wells which adding 5 μL Complete TR-FRET Coregulator Buffer D. Prepare a solution containing 0.6 μM Fluorescein-D22 and 8 nM Tb anti-GST antibody using Complete TR-FRET Coregulator Buffer D. Add 5 μL to all wells of the 384-well assay plate. Briefly and gently mix the 384-well plate on a plate shaker and incubate at room temperature protected from light for 1 hour. The plate may be sealed with a cover to minimize evaporation. Read the plate at wavelengths of 520 nm and 495 nm on Tecan Infinite M1000. IC50 values were calculated using GraphPad Prism by plotting the logarithm of compounds concentration versus percent inhibition.
row,SMILES,IC50 [µM]
1,"CCS(=O)(=O)c1ccc(C(NC(C)=O)c2nc3c(Cl)c(-c4ccccc4OC(F)F)c(Cl)cc3[nH]2)cc1 (stereo not drawn) [Example 40, N-((4,6-dichloro-5-(2-(difluoromethoxy)phenyl)-1H-benzo[d]imidazol-2-yl)(4-(ethylsulfonyl)phenyl)methyl)acetamide]",0.083
2,"CCS(=O)(=O)c1ccc(C(NC(=O)COC)c2nc3c(Cl)c(-c4ccccc4OC(F)F)c(Cl)cc3[nH]2)cc1 (stereo not drawn) [Example 41, N-((4,6-dichloro-5-(2-(difluoromethoxy)phenyl)-1H-benzo[d]imidazol-2-yl)(4-(ethylsulfonyl)phenyl)methyl)-2-methoxyacetamide]",0.683
3,"CCS(=O)(=O)c1ccc(C(NC(=O)c2c(C)noc2C)c2nc3c(Cl)c(-c4ccccc4OC(F)F)c(Cl)cc3[nH]2)cc1 (stereo not drawn) [Example 42, N-((4,6-dichloro-5-(2-(difluoromethoxy)phenyl)-1H-benzo[d]imidazol-2-yl)(4-(ethylsulfonyl)phenyl)methyl)-3,5-dimethylisoxazole-4-carboxamide]",0.113
4,"CCS(=O)(=O)c1ccc(C(N)c2nc3c(Cl)c(-c4ccccc4OC(F)(F)F)c(Cl)cc3[nH]2)cc1 (stereo not drawn) [Example 43, (4,6-dichloro-5-(2-(trifluoromethoxy)phenyl)-1H-benzo[d]imidazol-2-yl)(4-(ethylsulfonyl)phenyl)methanamine]",0.656
5,"CCS(=O)(=O)c1ccc(C(NC(C)=O)c2nc3c(Cl)c(-c4ccccc4OC(F)(F)F)c(Cl)cc3[nH]2)cc1 (stereo not drawn) [Example 44, N-((4,6-dichloro-5-(2-(trifluoromethoxy)phenyl)-1H-benzo[d]imidazol-2-yl)(4-(ethylsulfonyl)phenyl)methyl)acetamide]",0.026
6,"CS(=O)(=O)c1ccc(Cc2nc3c(Cl)c(-c4ccccc4C(F)(F)F)c(Cl)cc3[nH]2)cc1 [Example 45, 4,6-dichloro-2-(4-(methylsulfonyl)benzyl)-5-(2-(trifluoromethyl)phenyl)-1H-benzo[d]imidazole]",0.535
7,"CS(=O)(=O)c1ccc(Cc2nc3c(Cl)c(-c4ccccc4OC(F)F)c(Cl)cc3[nH]2)cc1 [Example 47, 4,6-dichloro-5-(2-(difluoromethoxy)phenyl)-2-(4-(methylsulfonyl)benzyl)-1H-benzo[d]imidazole]",0.196
8,"CS(=O)(=O)c1ccc(C(CO)c2nc3c(Cl)c(-c4ccccc4OC(F)F)c(Cl)cc3[nH]2)cc1 (stereo not drawn) [Example 48, 2-(4,6-dichloro-5-(2-(difluoromethoxy)phenyl)-1H-benzo[d]imidazol-2-yl)-2-(4-(methylsulfonyl)phenyl)ethanol]",0.445
9,"CS(=O)(=O)c1ccc(C(O)c2nc3c(Cl)c(-c4ccccc4OC(F)F)c(Cl)cc3[nH]2)cc1 (stereo not drawn) [Example 49, (4,6-dichloro-5-(2-(difluoromethoxy)phenyl)-1H-benzo[d]imidazol-2-yl)(4-(methylsulfonyl)phenyl)methanol]",0.255
10,"CCCS(=O)(=O)c1ccc(Cc2nc3c(Cl)c(-c4ccccc4OC(F)(F)F)c(Cl)cc3[nH]2)cc1 [Example 50, 4,6-dichloro-2-(4-(propylsulfonyl)benzyl)-5-(2-(trifluoromethoxy)phenyl)-1H-benzo[d]imidazole]",0.284
11,"CCCS(=O)(=O)c1ccc(C(CO)c2nc3c(Cl)c(-c4ccccc4OC(F)(F)F)c(Cl)cc3[nH]2)cc1 (stereo not drawn) [Example 51, 2-(4,6-dichloro-5-(2-(trifluoromethoxy)phenyl)-1H-benzo[d]imidazol-2-yl)-2-(4-(propylsulfonyl)phenyl)ethanol]",0.646
12,"CCCS(=O)(=O)c1ccc(C(O)c2nc3c(Cl)c(-c4ccccc4OC(F)(F)F)c(Cl)cc3[nH]2)cc1 (stereo not drawn) [Example 52, (4,6-dichloro-5-(2-(trifluoromethoxy)phenyl)-1H-benzo[d]imidazol-2-yl)(4-(propylsulfonyl)phenyl)methanol]",0.135
13,"O=S(=O)(CCF)c1ccc(Cc2nc3c(Cl)c(-c4ccccc4C(F)(F)F)c(Cl)cc3[nH]2)cc1 [Example 63, 4,6-dichloro-2-(4-((2-fluoroethyl)sulfonyl)benzyl)-5-(2-(trifluoromethyl)phenyl)-1H-benzo[d]imidazole]",0.592

# Second part, the compound after the results:
row,IC50 [µM],SMILES
1,0.575,"COCCS(=O)(=O)c1ccc(Cc2nc3c(Cl)c(-c4ccccc4OC(F)(F)F)c(Cl)cc3[nH]2)cc1 [Example 53, 4,6-dichloro-2-(4-((2-methoxyethyl)sulfonyl)benzyl)-5-(2-(trifluoromethoxy)phenyl)-1H-benzo[d]imidazole]"
2,0.367,"COCCS(=O)(=O)c1ccc(C(CO)c2nc3c(Cl)c(-c4ccccc4OC(F)(F)F)c(Cl)cc3[nH]2)cc1 (stereo not drawn) [Example 54, 2-(4,6-dichloro-5-(2-(trifluoromethoxy)phenyl)-1H-benzo[d]imidazol-2-yl)-2-(4-((2-methoxyethyl)sulfonyl)phenyl)ethanol]"
3,0.194,"COCCS(=O)(=O)c1ccc(C(O)c2nc3c(Cl)c(-c4ccccc4OC(F)(F)F)c(Cl)cc3[nH]2)cc1 (stereo not drawn) [Example 55, (4,6-dichloro-5-(2-(trifluoromethoxy)phenyl)-1H-benzo[d]imidazol-2-yl)(4-((2-methoxyethyl)sulfonyl)phenyl)methanol]"
4,0.879,"CS(=O)(=O)c1ccc(Cc2nc3c(Cl)c(-c4ccccc4OC(F)(F)F)c(Cl)cc3[nH]2)cc1 [Example 56, 4,6-dichloro-2-(4-(methylsulfonyl)benzyl)-5-(2-(trifluoromethoxy)phenyl)-1H-benzo[d]imidazole]"
5,0.187,"CS(=O)(=O)c1ccc(C(CO)c2nc3c(Cl)c(-c4ccccc4OC(F)(F)F)c(Cl)cc3[nH]2)cc1 (stereo not drawn) [Example 57, 2-(4,6-dichloro-5-(2-(trifluoromethoxy)phenyl)-1H-benzo[d]imidazol-2-yl)-2-(4-(methylsulfonyl)phenyl)ethanol]"
6,0.266,"CS(=O)(=O)c1ccc(C(O)c2nc3c(Cl)c(-c4ccccc4OC(F)(F)F)c(Cl)cc3[nH]2)cc1 (stereo not drawn) [Example 58, (4,6-dichloro-5-(2-(trifluoromethoxy)phenyl)-1H-benzo[d]imidazol-2-yl)(4-(methylsulfonyl)phenyl)methanol]"
7,0.433,"O=S(=O)(CC(F)(F)F)c1ccc(Cc2nc3c(Cl)c(-c4ccccc4OC(F)(F)F)c(Cl)cc3[nH]2)cc1 [Example 59, 4,6-dichloro-2-(4-((2,2,2-trifluoroethyl)sulfonyl)benzyl)-5-(2-(trifluoromethoxy)phenyl)-1H-benzo[d]imidazole]"
8,0.409,"O=S(=O)(CC(F)(F)F)c1ccc(C(CO)c2nc3c(Cl)c(-c4ccccc4OC(F)(F)F)c(Cl)cc3[nH]2)cc1 (stereo not drawn) [Example 60, 2-(4,6-dichloro-5-(2-(trifluoromethoxy)phenyl)-1H-benzo[d]imidazol-2-yl)-2-(4-((2,2,2-trifluoroethyl)sulfonyl)phenyl)ethanol]"
9,0.509,"O=S(=O)(CCF)c1ccc(Cc2nc3c(Cl)c(-c4ccccc4OC(F)(F)F)c(Cl)cc3[nH]2)cc1 [Example 61, 4,6-dichloro-2-(4-((2-fluoroethyl)sulfonyl)benzyl)-5-(2-(trifluoromethoxy)phenyl)-1H-benzo[d]imidazole]"
10,0.154,"O=S(=O)(CCF)c1ccc(C(CO)c2nc3c(Cl)c(-c4ccccc4OC(F)(F)F)c(Cl)cc3[nH]2)cc1 (stereo not drawn) [Example 62, 2-(4,6-dichloro-5-(2-(trifluoromethoxy)phenyl)-1H-benzo[d]imidazol-2-yl)-2-(4-((2-fluoroethyl)sulfonyl)phenyl)ethanol]"
11,0.465,"O=S(=O)(CCF)c1ccc(C(CO)c2nc3c(Cl)c(-c4ccccc4C(F)(F)F)c(Cl)cc3[nH]2)cc1 (stereo not drawn) [Example 64, 2-(4,6-dichloro-5-(2-(trifluoromethyl)phenyl)-1H-benzo[d]imidazol-2-yl)-2-(4-((2-fluoroethyl)sulfonyl)phenyl)ethanol]"
12,0.015,"O=S(=O)(c1ccc(Cc2nc3c(Cl)c(-c4ccccc4C(F)(F)F)c(Cl)cc3[nH]2)cc1)C(F)(F)F [Example 65, 4,6-dichloro-5-(2-(trifluoromethyl)phenyl)-2-(4-((trifluoromethyl)sulfonyl)benzyl)-1H-benzo[d]imidazole]"
13,0.004,"O=S(=O)(CC1CC1)c1ccc(C(O)c2nc3c(Cl)c(-c4ccccc4C(F)(F)F)c(Cl)cc3[nH]2)cc1 (stereo not drawn) [Example 71, (4-((cyclopropylmethyl)sulfonyl)phenyl)(4,6-dichloro-5-(2-(trifluoromethyl)phenyl)-1H-benzo[d]imidazol-2-yl)methanol]"
14,0.187,"O=S(=O)(CC1CC1)c1ccc(C(CO)c2nc3c(Cl)c(-c4ccccc4F)c(Cl)cc3[nH]2)cc1 (stereo not drawn) [Example 74, 2-(4-((cyclopropylmethyl)sulfonyl)phenyl)-2-(4,6-dichloro-5-(2-fluorophenyl)-1H-benzo[d]imidazol-2-yl)ethanol]"

# Source: patent US12187684B2, “Benzimidazole derivatives as modulators of retinoid-related orphan receptor gamma (RORγ) and pharmaceutical use thereof” (Jiangsu Hengrui Medicine Co., Ltd., priority 2018, dated 2025)
